# Earlier results as cited in patent publication US8592402B2, “Compounds as lysophosphatidic acid receptor antagonists” (Amira Pharmaceuticals, Inc., priority 2009, dated 2013).
# Assays:
# nerve-injured mice = details: pretreatment
# [1] = test system: mouse epithelial renal cell line, MCT; details: LPA treatment of MCT cells, co-treatment
# [2] = test system: highly peritoneal metastatic pancreatic cancer cell line; details: LPA-induced and ascites-induced
# UUO mice = details: compared with LPA1 (−/−) mice
# [3] = test system: pancreatic cancer cell lines; details: in response to LPA and peritoneal fluid (ascites) from pancreatic cancer patients
# [4] = test system: human foetal lung fibroblasts
SMILES,allodynia and hyperalgesia (nerve-injured mice),induction of CTGF expression [1],invasion activity [2],development of renal fibrosis (UUO mice),in vitro migration [3],fibroblast chemotactic activity ([4]; bronchoalveolar lavage samples of human subjects with IPF),chemotaxis of human foetal lung fibroblasts ([4]; induced by BAL obtained from IPF patients)
C[C@@H](N)[C@H]1CC[C@H](C(=O)Nc2ccncc2)CC1 [Compound Y-27632],completely abolished,,,,,,
Cc1noc(-c2ccc(CSCCC(=O)O)cc2)c1NC(=O)OC(C)c1ccccc1Cl (stereo not shown) [Ki16425],,almost completely suppressed,blocked,closely resembled the LPA1 (−/−) mice,effectively blocked,inhibited,blocked
